Data: patent publication US20250290915A1, “METHOD FOR PREDICTING RESPONSIVENESS TO THERAPY” (CANCERTAIN LIMITED, priority 2022, published 2025)

How the values were obtained:
Format in all cases: cell-based, human
[1] = tested on: Circulating Tumour Cells (CTCs) from a patient with lung cancer (adenocarcinoma); experiment: Drug response score assay on CTCs (with CD45+ cells for immunotherapy) from blood, Example 5; conditions: lung cancer CTCs; for Drug sensitivity as calculated by the assay (interpretation of Drug Response Scores): Table 17
Procedure: (§1) CD45^+ cells and circulating tumour cells (CTCs) were isolated from a blood sample provided by each subject.
(§2) CD45 separation was performed by adding human CD45 microbeads (50 μl/ml blood), incubating for 15 minutes at 4° C. and then processing using an AutoMACS machine. This separates the blood sample into CD45^+ and CD45^−cells in 2 separate falcons. The falcon tubes are then centrifuged at 1200 rpm for 5 minutes.
(§3) The supernatant was removed from the CD45^+falcon tube, and the cells resuspended in DMEM with 2 μl Cell Tox, 2 μl MT and 2 μl MT. 20 μl of the resuspended CD45^+ cells was then plated in each well which will contain an immunotherapy treatment.
(§4) The supernatant was removed from the CD45^−falcon tube, and the CD45^−cells contacted with 100 μl of FcR block and 100 μl of CD326 (EpCAM) MicroBeads, followed by incubation at […] 4° C. for 30 minutes. The CD45^−cells were then processed using an AutoMACS machine to separate the EpCAM positive and negative cells into 2 separate falcon tubes. The EpCAM-cells were discarded. The supernatant was removed from the EpCAM^+ cells, and the cells resuspended in DMEM with 2 μl Cell Tox, 2 μl MT and 2 μl MT. 20 μl of the resuspended pellet was then added to all sample wells excluding a blank. After all wells are added to, a cell count was conducted on the […] to determine the number of circulating tumour cells (CTCs).
(§5) The different cell types were each divided equally into populations, depending on the number of drugs/concentrations to be tested and plated on a cell-culture plate pre-coated with a scaffold of polycaprolactone (PCL) electrospun fibres and incubated at 37° C., 5% CO2, for 5 to (typically 10) minutes to facilitate cell attachment. After attachment, an initial imaging step was carried out using the RealTime-Glo™ MT assay from Promega (Catalogue No. G9711)) and the CellTox™ Green Cytotoxicity Assay (Promega, Catalogue No. G8741), carried out according to manufacturer's instructions. Following this initial imagining, the immunotherapeutic and/or chemotherapeutic agents were added to the cell populations as indicated below. After 10 minutes, the imagining step was repeated. The cell populations were then incubated at 37° C., 5% CO2 for 48 hours. The imaging step was then repeated. The cell populations were then re-dosed with the same immunotherapeutic and/or chemotherapeutic agents as indicated below, and incubated at 37° C., 5% CO2 for a further 48 hours. After this second 48 hour incubation, the imagining step was repeated for a final time.
(§6) At the end of this culture period, dose response scores were calculated using a normalized drug response metric as described in Gupta et al. (Communications Biology volume 3, Article number: 42 (2020), https://doi.org/10.1038/s42003-020-0765-z). The start readout for a given immunotherapeutic or chemotherapeutic agent at a given concentration was the to readout for said immunotherapeutic or chemotherapeutic agent at a specified concentration. The end readout for a given immunotherapeutic or chemotherapeutic agent at a given concentration was the final timepoint reading (t96h) for said immunotherapeutic or chemotherapeutic agent at a specified concentration.
(§7) The positive control start readout for a given drug/concentration was the to readout for the corresponding drug at a specified concentration. The positive control end readout for the corresponding drug at a specified concentration was the final timepoint reading (t96h) for the corresponding blank well.
(§8) The negative control start and end readouts for a given immunotherapeutic or chemotherapeutic agent at a given concentration were the to and final timepoint reading (t96h) respectively for blank cell or blank immuno cell well respectively.
(§9) The sensitivity or resistance of a subject's cancer to a given immunotherapeutic or chemotherapeutic agent was determined based on the calculated drug response score as shown in Table 2. […]

[2] = tested on: cancer cells derived from the tissue sample of a patient with osteosarcoma; experiment: Drug response score assay on tissue sample, Example 10; set-up: key to Drug response score, conc. 1 / Drug response score, conc. 2 / Drug response score, conc. 3 / Drug response score, conc. 4: normalized drug response metric per Gupta et al. 2020; conditions: for Drug response score, conc. 1 / Drug response score, conc. 2 / Drug response score, conc. 3 / Drug response score, conc. 4: tissue sample; for Drug response score, conc. 1: conc. 1 per Table 31: Etop 1, DTIC 1.5, Ifos 0.125, Doce 0.02, Irinotecan 5 μg/ml; for Drug response score, conc. 2: conc. 2 per Table 31: Etop 4, DTIC 3, Ifos 0.25, Doce 0.2, Irinotecan 10 μg/ml; for Drug response score, conc. 3: conc. 3 per Table 31: Etop 20, DTIC 6, Ifos 5, Doce 2, Irinotecan 25 μg/ml; for Drug response score, conc. 4: conc. 4 per Table 31: Etop 100, DTIC 12, Ifos 10, Doce 10, Irinotecan 50 μg/ml
Procedure: (§10) Where a tissue sample was provided by each subject, cancer stem cells (CSCs, CD133^+), were isolated from said sample. Tumour marker cells were further isolated from each tissue sample. The remaining cells were designated tumour marker^+ cells.
(§11) First, disaggregation of the tissue samples was carried out. Disaggregation was dependent on the size of the tissue sample and the method of retrieval: • EBUS (Endobronchial Ultrasound Scan and Biopsy)—very small fragments of tissue in solution-spun at 1200 rpm for 5 minutes to collect tissue pellet • Bronchoscopy-larger fragments with larger amount of blood vessels • Broncho-lavage-similar to EBUS, spun at 1200 rpm for 5 minutes to collet tissue pellet
(§12) Once a pellet of tissue obtained, DMEM added to the tissue pellet and the material forced through a […] Smart strainer. Once a cell suspension was achieved, this was spun at 1200 rpm for 5 minutes and the supernatant removed. The cells were then resuspended to a volume of 60 μl.
(§13) 20 μl of FcR block and 20 μl of CD133 microbeads were added to the resuspended cells, followed by incubation for 15 minutes at 4° C. The cells were then processed using an AutoMACS machine. This separates the […] into CD133^+ and CD133^− cells in 2 separate falcons. The falcon tubes are then centrifuged at 1200 rpm for 5 minutes.
(§14) The supernatant was removed from the CD133+falcon tube, and the cells resuspended in DMEM with 2 μl Cell Tox, 2 μl MT and 2 μl MT. 20 μl of the resuspended […] was then plated in each well which will contain an immunotherapy treatment.
(§15) The supernatant was removed from the CD133^− falcon tube, and the CD133^− cells contacted with 40 μl of a tumour separation microbeads cocktail containing microbeads bound to anti-CD31, anti-CD45, anti-Glycophorin-A (Gly-A) and an anti-fibroblast antibody.
(§16) This cocktail is used to separate out tumour marker cells using MACS, by separating out CD31^+, CD45^+ and Gly-A^+ cells. In addition, anti-fibroblast antibody-labelled beads are also used. The cocktail is added to the CD133^− falcon tube, followed by incubation for 15 minutes at 4° C. MACS is carried out using an AutoMACS machine. This cells which are not bound by the CD31, CD45, Gly-A and anti-fibroblast antibody beads are the tumour marker^+ cells.
as §5
as §6, with “The end readout for a given immunotherapeutic or chemotherapeutic agent at a given concentration was the final timepoint reading (t96h) for said immunotherapeutic or chemotherapeutic agent at a specified concentration.” left out

[3] = tested on: Cancer Cells from tissue sample (CSCs, tumour marker+ cells) of a patient with GI cancer (Cholangio Carcinoma, stage 4); experiment: Drug response score assay on tissue sample, Example 9
Procedure: as §10, §11, §12, §13, §14, §15, §16, §5
as §6, with “The end readout for a given immunotherapeutic or chemotherapeutic agent at a given concentration was the final timepoint reading (t96h) for said immunotherapeutic or chemotherapeutic agent at a specified concentration.” left out

[4] = tested on: Circulating tumour cells (CTCs) from a patient with GI cancer (Cholangio Carcinoma, stage 4); experiment: Drug response score assay on blood sample, Example 9
Procedure: as §1, §2, §3, §4, §5, §6, §7, §8, §9

[5] = tested on: Circulating Tumour Cells (CTCs) from a patient with rectal cancer (anorectal carcinoma with secondary lung cancer); experiment: Drug response score assay on CTCs (with CD45+ cells for immunotherapy) from blood, Example 3
Procedure: as §1, §2, §3, §4, §5, §6, §7, §8, §9

COc1cc2ncnc(Nc3ccc(F)c(Cl)c3)c2cc1OCCCN1CCOCC1 [Gefitinib]
effectiveness on Circulating Tumour Cells (CTCs) under laboratory conditions [1]: relatively less effective compared rest of the agents
Drug sensitivity as calculated by the assay (interpretation of Drug Response Scores) [1]: S+

CCc1c2c(nc3ccc(OC(=O)N4CCC(N5CCCCC5)CC4)cc13)-c1cc3c(c(=O)n1C2)COC(=O)[C@]3(O)CC [Irina]
Drug response score, conc. 1 [2]: −0.0303
Drug response score, conc. 2 [2]: −0.1454
Drug response score, conc. 3 [2]: 0.2672
Drug response score, conc. 4 [2]: −0.0433

CCc1c2c(nc3ccc(OC(=O)N4CCC(N5CCCCC5)CC4)cc13)-c1cc3c(c(=O)n1C2)COC(=O)[C@]3(O)CC [Irinotecan]
effectiveness on the cancer cells derived from the tissue sample under laboratory conditions ([2]; osteosarcoma tissue sample): show effectiveness
Drug sensitivity as calculated by the assay (interpretation of Drug Response Scores) ([2]; osteosarcoma tissue sample, Table 33): Sensitive (S++)
effectiveness on Cancer Cells from tissue sample under laboratory conditions ([3]; GI cancer (Cholangio Carcinoma) tissue sample): S+
Drug sensitivity as calculated by the assay, Tissue ([3]; interpretation based on Drug Response Scores, tissue sample): S+
Drug response score, conc. 1 ([3]; tissue sample, conc. 1 per Table 27B: Pem 20, Niv 20, Atez 100, Pacli 0.05, Irino 5, Beva 1 μg/ml, Len 50, 5-FU 250 ng/ml): 0.887
Drug response score, conc. 2 ([3]; tissue sample, conc. 2 per Table 27B: Pem 40, Niv 40, Atez 200, Pacli 0.1, Irino 10, Beva 2 μg/ml, Len 100, 5-FU 500 ng/ml): 0.9135
Drug response score, conc. 3 ([3]; tissue sample, conc. 3 per Table 27B: Pem 100, Niv 80, Atez 400, Pacli 0.2, Irino 25, Beva 4 μg/ml, Len 200, 5-FU 1000 ng/ml): 0.8742
Drug response score, conc. 4 ([3]; tissue sample, conc. 4 per Table 27B: Pem 160, Niv 160, Atez 800, Pacli 1, Irino 50, Beva 8 μg/ml, Len 400, 5-FU 2000 ng/ml): 0.8612
effectiveness on Circulating Tumour Cells under laboratory conditions ([4]; GI cancer (Cholangio Carcinoma) blood sample): S+
Drug response score from blood sample, conc. 1 ([4]; conc. 1 of each drug as in Table 27, blood sample, t96h): 0.1974
Drug response score from blood sample, conc. 2 ([4]; conc. 2 of each drug as in Table 27, blood sample, t96h): 0.3469
Drug response score from blood sample, conc. 3 ([4]; conc. 3 of each drug as in Table 27, blood sample, t96h): 0.6197
Drug response score from blood sample, conc. 4 ([4]; conc. 4 of each drug as in Table 27, blood sample, t96h): 0.5913
Drug sensitivity as calculated by the assay, Blood ([4]; interpretation based on Drug Response Scores, blood sample): S+

CNC(=O)c1cc(Oc2ccc(NC(=O)Nc3ccc(Cl)c(C(F)(F)F)c3)c(F)c2)ccn1 [Regorafinib]
Drug response score, conc. 1 ([5]; conc. 1: Pembro 20 μg/ml, Nivo 20 μg/ml (CTCs + CD45+ cells), Lenva 50 ng/ml, Regor 60 μg/ml (CTCs), t96h): 0.9681
Drug response score, conc. 2 ([5]; conc. 2: Pembro 40 μg/ml, Nivo 40 μg/ml (CTCs + CD45+ cells), Lenva 100 ng/ml, Regor 80 μg/ml (CTCs), t96h): 0.9212
Drug response score, conc. 3 ([5]; conc. 3: Pembro 100 μg/ml, Nivo 80 μg/ml (CTCs + CD45+ cells), Lenva 200 ng/ml, Regor 120 μg/ml (CTCs), t96h): 0.7424
Drug response score, conc. 4 ([5]; conc. 4: Pembro 160 μg/ml, Nivo 160 μg/ml (CTCs + CD45+ cells), Lenva 400 ng/ml, Regor 160 μg/ml (CTCs), t96h): −0.7024
effectiveness on Circulating Tumour Cells under laboratory conditions ([5]; rectal cancer CTCs): Sensitive S+
Drug sensitivity as calculated by the assay (interpretation of Drug Response Scores) ([5]; rectal cancer CTCs, Table 11): Sensitive (S+)

CN(C)/N=N/c1[nH]cnc1C(N)=O [DTIC]
Drug response score, conc. 1 [2]: −0.7928
Drug response score, conc. 2 [2]: 0.4035
Drug response score, conc. 3 [2]: −0.0520
Drug response score, conc. 4 [2]: 0.1714

C#Cc1cccc(Nc2ncnc3cc(OCCOC)c(OCCOC)cc23)c1 [Erlotinib]
effectiveness on Circulating Tumour Cells (CTCs) under laboratory conditions [1]: relatively less effective compared rest of the agents
Drug sensitivity as calculated by the assay (interpretation of Drug Response Scores) [1]: S+

C[C@@H](Oc1cc(-c2cnn(C3CCNCC3)c2)cnc1N)c1c(Cl)ccc(F)c1Cl [Crizotinib]
effectiveness on Circulating Tumour Cells (CTCs) under laboratory conditions [1]: marginally more effective than other agents
Drug sensitivity as calculated by the assay (interpretation of Drug Response Scores) [1]: S++
